The text below walks through data of paper PMC10372922 (Acta Pharmaceutica Sinica. B, 2023).

Molecules are shown by their SMILES.

The target in this experiment is T1, TGF-β receptor type-1 (TGFβR1) (Homo sapiens, UniProt P36897).
T1 sequence (P36897 200-503 limits assumed): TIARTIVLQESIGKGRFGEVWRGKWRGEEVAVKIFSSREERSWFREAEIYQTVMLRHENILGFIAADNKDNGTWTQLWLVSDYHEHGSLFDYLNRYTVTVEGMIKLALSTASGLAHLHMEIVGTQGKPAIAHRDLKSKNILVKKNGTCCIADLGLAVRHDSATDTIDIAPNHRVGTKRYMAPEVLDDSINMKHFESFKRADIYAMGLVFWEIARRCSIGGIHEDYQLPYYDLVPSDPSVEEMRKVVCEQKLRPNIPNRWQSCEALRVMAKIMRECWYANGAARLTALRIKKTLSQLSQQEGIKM
Nature of the experiment: SPR. The experiment is classed as binding.

What is called Kd is the equilibrium constant for the complex coming apart. The compound `CC(=O)O[C@@H]1C[C@H](O)[C@@]23COC(O)C1(C)[C@@H]2C[C@@H](O)[C@@]1(C)[C@@H]2C(=O)C[C@@H](c4ccoc4)[C@]2(C)[C@@H](OC(C)=O)C(=O)[C@@H]13` (stereo partly shown) [ITSN, Isotoosendanin] came in with a dissociation constant (Kd) of 24 µM.
